Test results as given in EP1579851A2, “Rapid release encapsulated bioactive agents for inducing or potentiating an immune response and methods of use thereof” (CORIXA CORPORATION, priority 1997, dated 1999).

Test system: P815 cells
Test: In vivo CTL induction by P815-1 formulations (anti-P1A response), 51Cr release cytotoxicity assay
Set-up: species or system DBA/2 mice
Conditions: 30 µg peptide or equivalent, two weeks after a single immunization; restimulated with P815-2 pulsed splenocytes; Fig. 4a
Protocol: C57BL/6 mice were immunized subcutaneously with 15-30µg of soluble Ova or Ova encapsulated in microspheres (Ova/PLG). In the P1A system, DBA/2 mice were similarly immunized with P815-1 peptide alone or P815-1/PLG. PLG is defined herein as PLG1, which represents the polymeric composition of the single component system, or PLG2a-XX, which represents the polymeric composition of the blend component system. Antigens were suspended in 200 iL of PBS and injected on both flanks of the animal. As controls, mice were immunized with Ova admixed with alum as adjuvant. Fourteen to 21 days after the immunization, splenocytes were prepared as single cell suspensions and ~50'10^6 cells from each mouse were incubated with 2.5'10^6 irradiated (200,000 rad) EG7.Ova cells. […] After five days of culture, CTL activities were measured in a ^51Cr release cytotoxicity assay as described below.
To conduct a CTL assay, target cells were incubated with ^51Cr at 100 ìCi/10^6 cells at 37°C for 60 min. […] After 4 hours of incubation at 37°C, supernatant was collected from test wells using Skatron filter strips and counted on a Packard Cobra II a counter. Specific lysis was calculated as: % specific lysis =(Experimental release - Spontaneous release)/(Maximum release - Spontaneous release)X 100 [formula] […]

For “KKKRYSLEEILPYLGWLVFAWTTSKKK [soluble P815-1 peptide, 28 amino acid peptide, residues 28-49 of the P1A antigen with 3 lysine residues added to both termini]”, which “CTL activity of splenocytes against P815 cells” value is on record?
Its value is “Minimal CTL priming”.
